Results on 10 compounds are retold here after PubChem BioAssay (NCI).

Some test systems named below: 786-0 renal; A549 NSCLC; EKVX NSCLC; HCT-116 colon; HOP-62 NSCLC; OVCAR-4 ovarian; RXF 393 renal; TK-10 renal; DMS 114 small cell lung.
Assay in all cases: NCI anticancer screen, dose series, 48 h

“And” between values parts separate entries of the source, which are not always exact repeats. Equal entries are not always repeated.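 A five-concentration, 48-hour dose response in 96-well plates underlies each endpoint, interpolated linearly between surrounding concentrations. Here, GI50 denotes the concentration required for 50% inhibition of growth. TGI: concentration producing complete growth inhibition.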

`O=C1c2ccn(CCCCN3CCCCC3)c2C(=O)c2c1c(O)c1ccccc1c2O`: the GI50 was 5.28 µM in the assay on 786-0 renal; 10.3 µM with A549 NSCLC; 15.2 µM in the assay with EKVX NSCLC; 7.76 µM in the assay with HCT-116 colon; 13.4 µM in the assay with HOP-62 NSCLC; 9.48 µM in the assay on OVCAR-4 ovarian. Moreover, the GI50 was 5.54 µM in the assay with RXF 393 renal and 13.6 µM in the assay on TK-10 renal. In addition, the TGI in the assay on A549 NSCLC was 33.9 µM; in the assay with EKVX NSCLC it was 36.1 µM; in the assay on HCT-116 colon it was > 53.9 µM; in the assay on HOP-62 NSCLC, 35.4 µM; with OVCAR-4 ovarian, > 61.1 µM; in the assay on RXF 393 renal it was 18 µM. Also, the TGI in the assay on TK-10 renal was 27.9 µM.
Take `c1cc[c]([Sn]([S]c2cccc3cccnc23)([S]c2cccc3cccnc23)[c]2ccccc2)cc1`: the GI50 in the assay with 786-0 renal was 0.212 µM; in the assay on A549 NSCLC, 0.363 µM; with DMS 114 small cell lung it was 0.164 µM; in the assay on EKVX NSCLC it was 0.22 µM; in the assay on HCT-116 colon, 0.175 µM; in the assay on HOP-62 NSCLC, 0.411 µM. The results for the GI50 in the assay on OVCAR-4 ovarian, in the assay on RXF 393 renal and in the assay on TK-10 renal were 0.163 µM, 0.109 µM and 0.206 µM, respectively. Moreover, the TGI with 786-0 renal worked out at 0.502 µM; in the assay on A549 NSCLC, 1.38 µM; in the assay with DMS 114 small cell lung, 0.374 µM; with EKVX NSCLC it was 0.881 µM; with HCT-116 colon, 0.324 µM; in the assay with HOP-62 NSCLC, 1.75 µM. Moreover, the TGI in the assay with OVCAR-4 ovarian came out at 0.336 µM; with RXF 393 renal it was 0.23 µM; with TK-10 renal, 0.417 µM.
As to `Cc1cc(C)c2c(SCc3ccc(Cl)cc3Cl)nc(N)nc2n1`, the TGI with 786-0 renal was 41.8 µM; with A549 NSCLC, > 100 µM; in the assay with EKVX NSCLC, > 100 µM; in the assay on HCT-116 colon, > 100 µM; with HOP-62 NSCLC it was > 100 µM; in the assay on OVCAR-4 ovarian, > 100 µM. For the same compound, the values for the TGI in the assay with RXF 393 renal and in the assay on TK-10 renal were > 100 µM and 47.5 µM, respectively.
As for `O=C(Nc1ccccc1O)c1ccc(CNC(=O)c2sccc2Nc2ccnc(C(F)(F)F)c2)cc1`, the GI50 was 9.92 µM in the assay with 786-0 renal; 8.68 µM with A549 NSCLC; 8.77 µM with EKVX NSCLC; 4.61 µM with HCT-116 colon; 10.9 µM with HOP-62 NSCLC; 5.35 µM in the assay on OVCAR-4 ovarian. The GI50 in the assay with RXF 393 renal is 3.28 µM; with TK-10 renal it was 4.76 µM. For the same compound, the TGI is 25 µM in the assay with 786-0 renal; 28.2 µM with A549 NSCLC; 57.7 µM in the assay with EKVX NSCLC; 15.2 µM in the assay with HCT-116 colon; 42.7 µM in the assay with HOP-62 NSCLC; > 100 µM in the assay with OVCAR-4 ovarian. In addition, the TGI in the assay with RXF 393 renal amounted to 15.6 µM; in the assay with TK-10 renal it was 22.7 µM.
Take `CC(=O)/C=C/C1=C(c2cccs2)c2ccccc2CC1`: the GI50 is 49.4 µM in the assay with 786-0 renal; 37.3 µM in the assay on A549 NSCLC; 35.1 µM with EKVX NSCLC; 37.6 µM with HCT-116 colon; 33.8 µM with HOP-62 NSCLC; 25.1 µM in the assay on OVCAR-4 ovarian. In addition, the GI50 in the assay with RXF 393 renal is 31.8 µM; in the assay on TK-10 renal, 32 µM. Moreover, the TGI in the assay on 786-0 renal was > 100 µM; in the assay with A549 NSCLC it was > 100 µM; with EKVX NSCLC, > 100 µM; with HCT-116 colon, > 100 µM; in the assay with HOP-62 NSCLC it was 88 µM; in the assay on OVCAR-4 ovarian, 64.9 µM. The figures for the TGI with RXF 393 renal and with TK-10 renal were 78.9 µM and > 100 µM, respectively.
Consider `Cc1cc(C)cc(Nc2ccc([N+](=O)[O-])c(NCCN3CCOCC3)n2)c1`, for which the TGI is 18.8 µM in the assay with 786-0 renal; > 100 µM in the assay with A549 NSCLC; > 100 µM with EKVX NSCLC; > 100 µM in the assay on HCT-116 colon; 44.9 µM with HOP-62 NSCLC; > 100 µM with OVCAR-4 ovarian. The values for the TGI in the assay with RXF 393 renal and in the assay with TK-10 renal were 48.8 µM and > 100 µM, respectively. Further, the GI50 in the assay with A549 NSCLC was 0.00286 µM and 0.02 µM; in the assay with HCT-116 colon, 0.00222 µM and 0.0146 µM; with OVCAR-4 ovarian it was 0.002 µM; with RXF 393 renal, 0.0208 µM; in the assay on TK-10 renal it was 13 µM.
As for `CCCCCCC#CC#Cc1cccc(=O)o1`, the GI50 is 0.991 µM in the assay with 786-0 renal; 9.24 µM in the assay with A549 NSCLC; 13.8 µM in the assay with EKVX NSCLC; 0.985 µM in the assay on HCT-116 colon; 2.65 µM with HOP-62 NSCLC; 9.12 µM in the assay with OVCAR-4 ovarian. Besides, the GI50 in the assay on RXF 393 renal was 1.72 µM; with TK-10 renal it was 2.67 µM. In addition, the TGI in the assay on 786-0 renal was 2.72 µM; in the assay with A549 NSCLC, 30.7 µM; in the assay on EKVX NSCLC, 31.7 µM; with HCT-116 colon it was 2.34 µM; with HOP-62 NSCLC, 8.48 µM; in the assay on OVCAR-4 ovarian, 23.1 µM. For the same compound, the TGI was 4.65 µM in the assay on RXF 393 renal and 8.23 µM in the assay with TK-10 renal.
With `OCC#Cc1ccccc1C#Cc1ccc(C#Cc2ccccc2C#CCO)s1`, the GI50 was 19.3 µM in the assay on 786-0 renal; 19.1 µM in the assay on A549 NSCLC; 19.9 µM in the assay on EKVX NSCLC; 24.2 µM in the assay with HCT-116 colon; 22.6 µM in the assay with HOP-62 NSCLC; 26.4 µM in the assay with OVCAR-4 ovarian. Besides, the values for the GI50 with RXF 393 renal and with TK-10 renal were 19.6 µM and 16.7 µM, respectively. Besides, the TGI is 37.7 µM with 786-0 renal; 41 µM with A549 NSCLC; 43.1 µM with EKVX NSCLC; 50.1 µM with HCT-116 colon; 53.7 µM in the assay with HOP-62 NSCLC; > 100 µM with OVCAR-4 ovarian. The TGI stood at 39.6 µM in the assay on RXF 393 renal and 30.6 µM in the assay on TK-10 renal.
Regarding `CC(=O)c1cc2c(c3ccsc13)-c1ccccc1CC2`, the GI50 was 35.2 µM in the assay with 786-0 renal; 35.7 µM in the assay on A549 NSCLC; 6.37 µM with EKVX NSCLC; 20.3 µM in the assay with HCT-116 colon; 36.4 µM in the assay with HOP-62 NSCLC; > 100 µM in the assay on OVCAR-4 ovarian. Besides, the GI50 was 28.6 µM with RXF 393 renal and 25.4 µM in the assay on TK-10 renal. For the same compound, the TGI with 786-0 renal, in the assay with A549 NSCLC, with EKVX NSCLC, with HCT-116 colon, with HOP-62 NSCLC and with OVCAR-4 ovarian was > 100 µM each time. For the same compound, the TGI was > 100 µM in the assay with RXF 393 renal and 83 µM with TK-10 renal.
In the case of `CC(C)(C)[Si](C)(C)OCC1C=CC(n2cnc3c(N)ncnc32)O1` (configuration not stated), the TGI with 786-0 renal was > 100 µM; in the assay on A549 NSCLC, > 100 µM; in the assay on EKVX NSCLC it was > 100 µM; in the assay with HCT-116 colon, 50.6 µM; with HOP-62 NSCLC, > 100 µM; in the assay with OVCAR-4 ovarian it was > 100 µM. In addition, the TGI is 73 µM in the assay with RXF 393 renal and > 100 µM in the assay on TK-10 renal.
